Structures are written as SMILES.

The source of these data is ChEMBL document CHEMBL3588750 (Medchemcomm, 2014).

Experiment [1] deals with Somatostatin receptor type 5 (Homo sapiens, UniProt P35346). Put plainly: Inhibition of radiolabeled somatostatin-14 binding to human recombinant SSTR5.
Experiment [2] addresses Somatostatin receptor type 4 (Homo sapiens, UniProt P31391). In words: Inhibition of radiolabeled somatostatin-14 binding to human recombinant SSTR4.

Sequence of Somatostatin receptor type 5 (P35346 whole entry): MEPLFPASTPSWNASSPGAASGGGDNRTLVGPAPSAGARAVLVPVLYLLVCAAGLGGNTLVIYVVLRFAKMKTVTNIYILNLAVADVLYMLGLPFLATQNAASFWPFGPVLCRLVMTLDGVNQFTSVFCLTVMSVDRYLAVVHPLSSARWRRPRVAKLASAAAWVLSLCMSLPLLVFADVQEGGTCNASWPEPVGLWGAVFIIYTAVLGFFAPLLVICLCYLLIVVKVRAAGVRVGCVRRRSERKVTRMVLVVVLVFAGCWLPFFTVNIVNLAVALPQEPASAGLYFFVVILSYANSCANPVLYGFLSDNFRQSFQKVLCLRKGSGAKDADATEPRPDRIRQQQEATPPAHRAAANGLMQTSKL
Sequence of Somatostatin receptor type 4 (P31391 whole entry): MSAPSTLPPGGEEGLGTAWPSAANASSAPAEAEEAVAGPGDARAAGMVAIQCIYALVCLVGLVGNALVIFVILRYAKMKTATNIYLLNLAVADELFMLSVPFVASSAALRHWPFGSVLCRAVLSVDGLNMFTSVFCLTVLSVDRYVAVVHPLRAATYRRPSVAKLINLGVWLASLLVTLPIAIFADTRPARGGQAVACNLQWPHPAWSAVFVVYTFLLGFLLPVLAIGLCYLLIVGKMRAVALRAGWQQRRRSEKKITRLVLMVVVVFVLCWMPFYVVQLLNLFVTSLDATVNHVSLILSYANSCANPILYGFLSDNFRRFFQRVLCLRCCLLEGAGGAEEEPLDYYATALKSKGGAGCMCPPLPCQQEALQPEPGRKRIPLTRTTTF

With `NCCCCCOC[C@@H]1[C@@H](O)[C@H](O)[C@@H](O)CN1CCc1c[nH]c2ccccc12`, the Ki result in experiment [1] is “Not Active”; in experiment [2] (read-out: Ki) it was 3.2 µM.

As to `NCCCCC[C@@H]1[C@@H](O)[C@H](O)[C@@H](O)CN1Cc1ccc2ccccc2c1`, the Ki in experiment [1] (read-out: Ki) was 34 µM; in experiment [2] it was “Not Active”.

On to `CC(=O)O[C@H]1[C@H](OC(C)=O)[C@@H](CCCCCN)N(Cc2ccc3ccccc3c2)C[C@@H]1OC(C)=O`, for which the Ki stood at 7.7 µM in experiment [1] (read-out: Ki) and 5.4 µM in experiment [2] (read-out: Ki).

Regarding `NCCCCC[C@@H]1[C@@H](OCc2ccccc2)[C@H](OCc2ccccc2)[C@@H](OCc2ccccc2)CN1Cc1ccc2ccccc2c1`, the Ki was 2 µM in experiment [1] (read-out: Ki) and 1.9 µM in experiment [2] (read-out: Ki).
